Measured values as given in PMC10997603, “Cryo-EM structures of pannexin 1 and 3 reveal differences among pannexin isoforms” (Nature Communications, 2024).
Read-outs that look alike come from different tables or passages of the source.

Columns and labels:
PANX1 (PANX1WT) [1] = target: T1, PANX1 (PANX1WT) (Homo sapiens, UniProt Q96RD7, R217H); experiment: whole-cell patch clamp, transfected HEK293; format: cell-based; conditions: pH 7.4, 23 °C; 100 µM in bath
T1 construct: full-length; C-terminal TEV site-eGFP-8xHis, GFP/His cut by TEV for purified protein; HEK293S GnTI- (BacMam), GDN-solubilised homoheptamer; transiently transfected HEK293 for patch clamp

PANX3 (PANX3WT) [2] = target: T2, PANX3 (PANX3WT) (Homo sapiens, UniProt Q96QZ0); experiment: whole-cell patch clamp, transfected HEK293; format: cell-based; conditions: pH 7.4, 23 °C; 100 µM in bath
T2 construct: full-length, 392 residues; C-terminal TEV site-eGFP-8xHis, GFP/His cut by TEV for purified protein; HEK293S GnTI- (BacMam), GDN-solubilised homoheptamer; transiently transfected HEK293 for patch clamp
T2 sequence (Q96QZ0 1-392): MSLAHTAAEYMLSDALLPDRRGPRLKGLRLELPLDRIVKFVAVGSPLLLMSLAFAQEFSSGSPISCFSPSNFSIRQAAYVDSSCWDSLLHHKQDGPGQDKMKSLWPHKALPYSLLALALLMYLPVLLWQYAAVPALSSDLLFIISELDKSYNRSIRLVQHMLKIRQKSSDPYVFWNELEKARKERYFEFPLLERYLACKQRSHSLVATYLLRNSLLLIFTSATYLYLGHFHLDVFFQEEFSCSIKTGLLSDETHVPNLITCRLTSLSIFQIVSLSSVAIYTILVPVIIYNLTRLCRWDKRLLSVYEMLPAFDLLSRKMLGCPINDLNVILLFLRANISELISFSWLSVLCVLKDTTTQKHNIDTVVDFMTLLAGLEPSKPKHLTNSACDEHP

PANX1 (PANX1WT) [3] = target: T3, PANX1 (PANX1WT) (Homo sapiens, UniProt Q96RD7, W74R/R75D); experiment: whole-cell patch clamp, transfected HEK293; format: cell-based; conditions: pH 7.4, 23 °C; 100 µM in bath
T3 construct: full-length; C-terminal TEV site-eGFP-8xHis, GFP/His cut by TEV for purified protein; HEK293S GnTI- (BacMam), GDN-solubilised homoheptamer; transiently transfected HEK293 for patch clamp

PANX1 (PANX1WT) [4] = target: T4, PANX1 (PANX1WT) (Homo sapiens, UniProt Q96RD7); experiment: microscale thermophoresis; format: binding
T4 construct: full-length; C-terminal TEV site-eGFP-8xHis, GFP/His cut by TEV for purified protein; HEK293S GnTI- (BacMam), GDN-solubilised homoheptamer; transiently transfected HEK293 for patch clamp

PANX3 (PANX3WT) [5] = target: T2, PANX3 (PANX3WT); experiment: microscale thermophoresis; format: binding; conditions: read-out: affinity
PANX1 (PANX1WT) [6] = target: T5, PANX1 (PANX1WT) (Homo sapiens, UniProt Q96RD7, K24A); experiment: microscale thermophoresis; format: binding
T5 construct: full-length; C-terminal TEV site-eGFP-8xHis, GFP/His cut by TEV for purified protein; HEK293S GnTI- (BacMam), GDN-solubilised homoheptamer; transiently transfected HEK293 for patch clamp
T5 sequence (Q96RD7 whole entry K24A): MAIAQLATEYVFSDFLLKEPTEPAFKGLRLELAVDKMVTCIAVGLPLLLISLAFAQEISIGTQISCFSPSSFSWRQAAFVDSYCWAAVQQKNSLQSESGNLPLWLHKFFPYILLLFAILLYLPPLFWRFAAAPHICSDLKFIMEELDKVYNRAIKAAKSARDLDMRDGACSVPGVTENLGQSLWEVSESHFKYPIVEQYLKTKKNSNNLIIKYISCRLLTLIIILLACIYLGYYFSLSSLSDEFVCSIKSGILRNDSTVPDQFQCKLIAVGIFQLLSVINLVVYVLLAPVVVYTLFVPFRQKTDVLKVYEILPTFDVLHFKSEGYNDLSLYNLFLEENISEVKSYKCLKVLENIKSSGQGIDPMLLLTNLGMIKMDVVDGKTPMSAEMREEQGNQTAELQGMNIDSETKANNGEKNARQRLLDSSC

PANX1 (PANX1WT) [7] = target: T6, PANX1 (PANX1WT) (Homo sapiens, UniProt Q96RD7, R75A); experiment: microscale thermophoresis; conditions: read-out: binding affinity
T6 construct: full-length; C-terminal TEV site-eGFP-8xHis, GFP/His cut by TEV for purified protein; HEK293S GnTI- (BacMam), GDN-solubilised homoheptamer; transiently transfected HEK293 for patch clamp
T6 sequence (Q96RD7 whole entry R75A): as the sequence (Q96RD7 whole entry K24A) above, with A24K, R75A counted along it

PANX1 (PANX1WT) [8] = target: T1, PANX1 (PANX1WT); experiment: microscale thermophoresis; conditions: read-out: apparent binding affinity
PANX1 (PANX1WT) [9] = target: T7, PANX1 (PANX1WT) (Homo sapiens, UniProt Q96RD7, R75D/W74R); experiment: microscale thermophoresis; format: binding
T7 construct: full-length; C-terminal TEV site-eGFP-8xHis, GFP/His cut by TEV for purified protein; HEK293S GnTI- (BacMam), GDN-solubilised homoheptamer; transiently transfected HEK293 for patch clamp

[10] = target: the molecule itself; experiment: cryo-EM structure; purified channel in GDN detergent, 25 mM Tris pH 8.0, 100 mM KCl, 1% glycerol, 5 mg/ml; 1 mM ATP added for PANX3; C7 symmetry imposed

In the case of `CC1(C)[C@@H](OC(=O)CCC(=O)O)CC[C@]2(C)[C@H]3C(=O)C=C4[C@@H]5C[C@@](C)(C(=O)O)CC[C@]5(C)CC[C@@]4(C)[C@]3(C)CC[C@@H]12` [carbenoxolone], the “inhibition of currents at 100 μM” value (PANX1 (PANX1WT) [1]) is reported as “inhibition of PANX1R217H currents by CBX similar to PANX1WT”, the “inhibition of currents at 100 μM” value (PANX3 (PANX3WT) [2]) is reported as “We observe weaker CBX sensitivity in PANX3, in comparison to PANX1” and the “inhibition of currents at 100 μM” value (PANX1 (PANX1WT) [3]) is reported as “decreased inhibition of PANX1WR/RD currents with CBX compared to PANX1WT”.

In the case of `Nc1ncnc2c1ncn2[C@@H]1O[C@H](COP(=O)(O)OP(=O)(O)OP(=O)(O)O)[C@@H](O)[C@H]1O` [ATP], the Kd (PANX1 (PANX1WT) [4]; read-out: affinity) is reported as 21 ± 11 µM.

In the case of `Nc1ncnc2c1ncn2[C@@H]1O[C@H](CO[P@](=O)(O)O[P@](=O)(O)O[P@@](=O)(O)S)[C@@H](O)[C@H]1O` [ATP-γS], the Kd (PANX3 (PANX3WT) [5]) is reported as 69 µM, the Kd (PANX1 (PANX1WT) [6]) is reported as 94 ± 15 µM and the Kd (PANX1 (PANX1WT) [7]) is reported as 114 ± 28 µM. For the same molecule, the Kd (PANX1 (PANX1WT) [8]) was 186 ± 70 µM, the Kd (PANX1 (PANX1WT) [4]; read-out: apparent binding affinity) was 18 ± 4 µM and the Kd (PANX1 (PANX1WT) [9]) was 67 ± 17 µM.

B1: human pannexin 3 (PANX3), full length (natural protein, UniProt Q96QZ0 1-392, looked up)
chain: MSLAHTAAEYMLSDALLPDRRGPRLKGLRLELPLDRIVKFVAVGSPLLLMSLAFAQEFSSGSPISCFSPSNFSIRQAAYVDSSCWDSLLHHKQDGPGQDKMKSLWPHKALPYSLLALALLMYLPVLLWQYAAVPALSSDLLFIISELDKSYNRSIRLVQHMLKIRQKSSDPYVFWNELEKARKERYFEFPLLERYLACKQRSHSLVATYLLRNSLLLIFTSATYLYLGHFHLDVFFQEEFSCSIKTGLLSDETHVPNLITCRLTSLSIFQIVSLSSVAIYTILVPVIIYNLTRLCRWDKRLLSVYEMLPAFDLLSRKMLGCPINDLNVILLFLRANISELISFSWLSVLCVLKDTTTQKHNIDTVVDFMTLLAGLEPSKPKHLTNSACDEHP
modifications: N-acetylglucosamine (NAG) at N71
notes: Pannexin 3, human, UniProt Q96QZ0, full length (392 residues); C-terminal TEV site (ENLYFQ) lies between the protein and eGFP-8xHis; residues of the site may be left after cleavage; Residues 1-24, 160-185 and 373-392 are not seen in the map; also called PANX3WT; source: HEK293S GnTI- cells, BacMam virus, purified (Ni-NTA, TEV cleavage, SEC) in GDN; not shown: eGFP, C-terminal, cleaved; 8x His, …
In the case of B1, the “stoichiometry N” value [10] is reported as 7.

B2: human pannexin 1 (PANX1), full length, wild type (natural protein, UniProt Q96RD7 1-426, looked up)
chain: MAIAQLATEYVFSDFLLKEPTEPKFKGLRLELAVDKMVTCIAVGLPLLLISLAFAQEISIGTQISCFSPSSFSWRQAAFVDSYCWAAVQQKNSLQSESGNLPLWLHKFFPYILLLFAILLYLPPLFWRFAAAPHICSDLKFIMEELDKVYNRAIKAAKSARDLDMRDGACSVPGVTENLGQSLWEVSESHFKYPIVEQYLKTKKNSNNLIIKYISCRLLTLIIILLACIYLGYYFSLSSLSDEFVCSIKSGILRNDSTVPDQFQCKLIAVGIFQLLSVINLVVYVLLAPVVVYTLFVPFRQKTDVLKVYEILPTFDVLHFKSEGYNDLSLYNLFLEENISEVKSYKCLKVLENIKSSGQGIDPMLLLTNLGMIKMDVVDGKTPMSAEMREEQGNQTAELQGMNIDSETKANNGEKNARQRLLDSSC
notes: Pannexin 1, human, UniProt Q96RD7, full length; C-terminal TEV site (ENLYFQ) lies between the protein and eGFP-8xHis; residues of the site may be left after cleavage; Only a map (no model) was deposited; also called PANX1WT; source: HEK293S GnTI- cells, BacMam virus, purified (Ni-NTA, TEV cleavage, SEC) in GDN; not shown: eGFP, C-terminal, cleaved; 8x His, C-terminal, cleaved
B2 was tested, and the “stoichiometry N” value [10] was 7.

B3: human pannexin 1 germline mutant R217H (natural protein, UniProt Q96RD7 1-426, looked up)
chain: MAIAQLATEYVFSDFLLKEPTEPKFKGLRLELAVDKMVTCIAVGLPLLLISLAFAQEISIGTQISCFSPSSFSWRQAAFVDSYCWAAVQQKNSLQSESGNLPLWLHKFFPYILLLFAILLYLPPLFWRFAAAPHICSDLKFIMEELDKVYNRAIKAAKSARDLDMRDGACSVPGVTENLGQSLWEVSESHFKYPIVEQYLKTKKNSNNLIIKYISCHLLTLIIILLACIYLGYYFSLSSLSDEFVCSIKSGILRNDSTVPDQFQCKLIAVGIFQLLSVINLVVYVLLAPVVVYTLFVPFRQKTDVLKVYEILPTFDVLHFKSEGYNDLSLYNLFLEENISEVKSYKCLKVLENIKSSGQGIDPMLLLTNLGMIKMDVVDGKTPMSAEMREEQGNQTAELQGMNIDSETKANNGEKNARQRLLDSSC
notes: Pannexin 1, human, UniProt Q96RD7, full length, with the germline substitution R217H (TM3); TEV site residues may be left after cleavage; also called PANX1_(R217H); source: HEK293S GnTI- cells, BacMam virus, purified (Ni-NTA, TEV cleavage, SEC) in GDN; not shown: eGFP, C-terminal, cleaved; 8x His, C-terminal, cleaved
B3: binds [10].

B4: human pannexin 1 double mutant W74R/R75D (natural protein, UniProt Q96RD7 1-426, looked up)
chain: MAIAQLATEYVFSDFLLKEPTEPKFKGLRLELAVDKMVTCIAVGLPLLLISLAFAQEISIGTQISCFSPSSFSRDQAAFVDSYCWAAVQQKNSLQSESGNLPLWLHKFFPYILLLFAILLYLPPLFWRFAAAPHICSDLKFIMEELDKVYNRAIKAAKSARDLDMRDGACSVPGVTENLGQSLWEVSESHFKYPIVEQYLKTKKNSNNLIIKYISCRLLTLIIILLACIYLGYYFSLSSLSDEFVCSIKSGILRNDSTVPDQFQCKLIAVGIFQLLSVINLVVYVLLAPVVVYTLFVPFRQKTDVLKVYEILPTFDVLHFKSEGYNDLSLYNLFLEENISEVKSYKCLKVLENIKSSGQGIDPMLLLTNLGMIKMDVVDGKTPMSAEMREEQGNQTAELQGMNIDSETKANNGEKNARQRLLDSSC
notes: Pannexin 1, human, UniProt Q96RD7, full length, with W74R and R75D; TEV site residues may be left after cleavage; also called PANX1_(WR/RD); PANX1 W74R/R75D; source: HEK293S GnTI- cells, BacMam virus, purified (Ni-NTA, TEV cleavage, SEC) in GDN; not shown: eGFP, C-terminal, cleaved; 8x His, C-terminal, cleaved
B4: binds [10].
